Source: publication PMC11500415, “Chemical inhibition of stomatal differentiation by perturbation of the master-regulatory bHLH heterodimer via an ACT-Like domain” (Nature Communications, 2024)
Several values for one entry are separate records, joined by “and”; a condition that tells them apart may be missing. Equal values may be shown once.

Tested on: Arabidopsis wild-type (WT) seedlings
Assay: Stomatal development bioassay, seedlings in liquid culture
Assay type: in vivo
Conditions: for effect on stomatal development (in words): WT seedlings; for Number of stomata per 1 mm2 of cotyledon abaxial epidermis: single seedlings n=8 (Fig. 2c); for reduction of total number of stomata and meristemoids / decrease of the number of stomata from mock / increase of the number of meristemoids from mock: WT (Fig. 1e); for meristemoid density, mean / stomata density, mean / total (stomata+meristemoid) density, mean: mean of n=8 (Fig. 1e)
Procedure: Arabidopsis accession Columbia (Col-0) was used as wild-type. […] Their genotype and transcript reduction were confirmed. The presence of transgenes/mutant alleles were confirmed by genotyping. For liquid culture with Stomidazolone (AYSJ929, compound 3), the analogs (AYSJ1059 (compound 5) and AYSJ1061 (compound 6)), degraded compound lzx103 (compound 4), and SIM3* (compound 7), all compounds were dissolved in dimethyl sulfoxide (DMSO, Molecular biology grade, Fujifilm Wako, Japan 046-21981), Col-0 seeds were sown in 96-well plates (TL5003; True Line) containing 95 μL of 1/2 MS media containing 0.5% sucrose with rotary shaking at 140 rpm under continuous light at 22 °C. Five μL of compounds were dissolved in DMSO at 10 mM and diluted with liquid 1/2 MS media to 1 mM and added on 1-day-old seedlings (final concentration, 50 μM). Seedlings were incubated for 8 days, and at day 9 seedling abaxial cotyledons were observed through confocal microscopy. For liquid culture of scrm-D_S343 and scrm-D_S423, 1/2 MS liquid media without sucrose was used. For the solid culture, 0, 20, 50 or 100 μM Stomidazolone were solidified with low-melting agarose (5805S, PrimeGelTM Agarose LMT 1-20 K, TAKARA Bio). Briefly, 1/2 MS salt, 0.5% sucrose, and 0.8% low melting agarose were mixed in water and autoclaved. After cooling the medium at around 30 °C, Stomidazolone (500x, dissolved in DMSO) was added and poured into 90 mm petri dishes (Asnol Petri Dish JP φ90 x 15 mm, 3-1491-01, AS ONE). Col-0 seeds were sown on Stomidazolone-containing 1/2 MS agarose media and grown under continuous light for 9 days.
For confocal microscopy, cell peripheries of seedlings were visualized with propidium iodide (Sigma, P4170). Images were acquired using LSM800 or LSM700 (Zeiss) using a 20x lens. The GFP, YFP reporter and PI signals were detected with excitation at 488 nm and an emission filter of 410 to 546 nm, at 488 nm and an emission filter of 410 to 546 nm, and with excitation at 561 nm and 582–617 nm emission range, respectively. Raw data were collected with 1024 × 1024 pixel images. For qualitative image presentation, Adobe Photoshop CC was used to trim and uniformly adjust the contrast/brightness.
For quantitative analysis of the abaxial leaf epidermis, confocal images were taken on the days after germination as indicated in the Figure legends. Preparation of images was done as described previously[32],[70]. For counting epidermal cell types, stomatal density, stomatal precursor cells (meristemoids), total stomata-lineage cells (stomata and meristemoids) were calculated by counting cell types in an area of 0.4 mm^2 (0.63 mm × 0.63 mm) and plotted as per mm^2. A series of Z-stack confocal images was obtained to obtain images covering the epidermis and capturing GFP/YFP signal from the reporter lines. The area and the number of epidermal cells were quantified by using FIJI-ImageJ. Statistical analyses were performed using R ver. 4.0.2. Sample sizes (n) are indicated and defined in each legend. For the multiple sample comparison, 1-way ANOVA was performed followed by a post hoc Tukey HSD test. For the two-sample comparison, Student’s T-test was performed. Graphs were generated using R ggplot2 package. For all boxplots, each box represents IQR (interquartile range), in which top, middle line, and bottom indicating 75, 50, and 25 percentiles, respectively, and the bar representing maximum to minimal values. Each magenta dot represents jittered individual data point. The datapoints that go beyond the bar are outliers, which are indicated as black dots. If the data point is greater than Q3 + 1.5*IQR (above the third quartile is greater than 1.5 times of the interquartile range) or less than Q1 − 1.5*IQR, that data point is classified as outlier. The color of Boxplot graph was based on ColorBrewer.org. The value of n, the number of each experiment or samples, the means of error bars, and how statistical significance was defined are indicated in a relevant figure legend. […]

[1] = 50 μM, WT, single seedlings n=8 (Fig. 4b)
[2] = 50 μM, cotyledon abaxial epidermis, individual seedlings

Cc1ccc(C2(NS(=O)(=O)c3ccccc3)N=C(c3ccccc3)C(=O)N2S(=O)(=O)c2ccccc2)cc1 (stereo not shown) [AYSJ1059]
effect on stomatal development (in words) (50 μM, liquid culture): did not affect the number of stomata
Number of stomata per 1 mm2 of cotyledon abaxial epidermis (50 μM, WT, 9 dag): 202 per 1 mm2 and 209 per 1 mm2 and 187 per 1 mm2 and 245 per 1 mm2 and 192 per 1 mm2 and 182 per 1 mm2 and 199 per 1 mm2 and 175 per 1 mm2

O=C1C(c2ccccc2)=NC(NS(=O)(=O)c2ccccc2)(c2ccc(Br)cc2)N1S(=O)(=O)c1ccccc1 (stereo not shown) [AYSJ1061]
effect on stomatal development (in words) (50 μM, liquid culture): did not affect the number of stomata
Number of stomata per 1 mm2 of cotyledon abaxial epidermis (50 μM, WT, 9 dag): 160 per 1 mm2 and 190 per 1 mm2 and 148 per 1 mm2 and 192 per 1 mm2 and 173 per 1 mm2 and 255 per 1 mm2 and 236 per 1 mm2

O=C1C(c2ccccc2)=NC(NS(=O)(=O)c2ccccc2)(c2ccccc2)N1S(=O)(=O)c1ccccc1 (stereo not shown) [Stomidazolone]
reduction of total number of stomata and meristemoids (20 μM): 14.46%
Total (stomata+meristemoid) density (20 uM, WT cotyledon abaxial epidermis, 9 dag, single seedlings n=8 (Fig. 1e)): 156 per mm^2 and 173 per mm^2 and 163 per mm^2 and 168 per mm^2 and 107 per mm^2 and 154 per mm^2 and 144 per mm^2 and 124 per mm^2
Stomata density (20 uM, WT, 9 dag, single seedlings n=8 (Fig. 1e)): 115 per mm^2 and 141 per mm^2 and 144 per mm^2 and 132 per mm^2 and 88 per mm^2 and 127 per mm^2
meristemoid density, mean (20 uM, WT, mock mean 7.875): 24.875 per mm^2
stomata density, mean (20 uM, WT, mock mean 165.75): 124.25 per mm^2
total (stomata+meristemoid) density, mean (20 uM, WT, mock mean 173.75): 148.625 per mm^2
decrease of the number of stomata from mock (50 μM): 59.50%
increase of the number of meristemoids from mock (50 μM): 801.5%
reduction of total number of stomata and meristemoids (50 μM): 25.03%
Total (stomata+meristemoid) density (50 uM, WT, 9 dag, single seedlings n=8 (Fig. 1e)): 166 per mm^2 and 149 per mm^2 and 124 per mm^2 and 132 per mm^2 and 146 per mm^2 and 100 per mm^2 and 115 per mm^2 and 110 per mm^2
Number of stomata per 1 mm2 of cotyledon abaxial epidermis (50 μM, WT, 9 dag): 70 per 1 mm2 and 109 per 1 mm2 and 90 per 1 mm2 and 124 per 1 mm2 and 129 per 1 mm2 and 112 per 1 mm2 and 117 per 1 mm2
meristemoid density, mean (50 uM, WT): 63.125 per mm^2
stomata density, mean (50 uM, WT): 67.125 per mm^2
total (stomata+meristemoid) density, mean (50 uM, WT): 130.25 per mm^2
Stomata density [1]: 90 per mm2 and 117 per mm2 and 102 per mm2 and 75 per mm2 and 107 per mm2 and 148 per mm2
Total (stomata+meristemoid) density [1]: 104 per mm2 and 136 per mm2 and 119 per mm2 and 102 per mm2 and 87 per mm2 and 124 per mm2 and 168 per mm2 and 158 per mm2
Meristemoid density (50 μM, WT, single seedlings n=8 (Fig. 4b, replotted 4k)): 15 per mm2 and 19 per mm2 and 17 per mm2 and 12 per mm2 and 10 per mm2
Meristemoid density [2]: 0 per mm2 and 2 per mm2 and 10 per mm2 and 5 per mm2 and 7 per mm2
Stomata density [2]: 214 per mm2 and 241 per mm2 and 216 per mm2 and 228 per mm2 and 194 per mm2 and 250 per mm2 and 182 per mm2 and 207 per mm2
Total cell density [2]: 214 per mm2 and 243 per mm2 and 226 per mm2 and 233 per mm2 and 199 per mm2 and 253 per mm2 and 190 per mm2 and 209 per mm2
decrease of the number of stomata from mock (100 μM): 69.53%
increase of the number of meristemoids from mock (100 μM): 647.6%
Total (stomata+meristemoid) density (100 uM, WT, 9 dag, single seedlings n=8 (Fig. 1e)): 120 per mm^2 and 85 per mm^2 and 71 per mm^2 and 112 per mm^2 and 95 per mm^2 and 122 per mm^2
meristemoid density, mean (100 uM, WT): 51 per mm^2
stomata density, mean (100 uM, WT): 50.5 per mm^2
total (stomata+meristemoid) density, mean (100 uM, WT): 101.25 per mm^2
effect on overall seedling growth (liquid culture, even at 100 μM (Fig. 1f)): does not affect
